{
  "source": "patent US9073855B2",
  "about": "“BCL-2 selective apoptosis-inducing agents for the treatment of cancer and immune diseases” (AbbVie Inc., priority 2008, dated 2015)",
  "key": {"GST-Bcl-2": {"biological_target": "GST-Bcl-2 (Homo sapiens, UniProt P10415)", "sequence (P10415 whole entry)": "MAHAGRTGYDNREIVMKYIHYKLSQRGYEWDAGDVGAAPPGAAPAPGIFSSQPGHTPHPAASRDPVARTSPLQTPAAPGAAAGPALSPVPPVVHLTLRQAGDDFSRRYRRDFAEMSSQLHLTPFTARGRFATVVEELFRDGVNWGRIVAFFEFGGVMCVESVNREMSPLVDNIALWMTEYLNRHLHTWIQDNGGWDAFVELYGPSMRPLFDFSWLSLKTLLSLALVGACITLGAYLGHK", "assay": "TR-FRET binding assay, GST-Bcl-2 with F-Bak peptide probe", "details": "TR-FRET Binding Affinity, GST-Bcl-2, F-Bak peptide probe", "procedure,_shortened": "(§1)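 Displacement of a fluorescein-labelled Bak peptide from the GST-tagged protein was followed by time-resolved FRET with a terbium anti-GST donor after 3 h incubation at room temperature. Inhibition constants were calculated with Wang's equation.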"}, "GST-Bcl-XL": {"biological_target": "GST-Bcl-XL (Homo sapiens, UniProt Q07817)", "sequence (Q07817 whole entry)": "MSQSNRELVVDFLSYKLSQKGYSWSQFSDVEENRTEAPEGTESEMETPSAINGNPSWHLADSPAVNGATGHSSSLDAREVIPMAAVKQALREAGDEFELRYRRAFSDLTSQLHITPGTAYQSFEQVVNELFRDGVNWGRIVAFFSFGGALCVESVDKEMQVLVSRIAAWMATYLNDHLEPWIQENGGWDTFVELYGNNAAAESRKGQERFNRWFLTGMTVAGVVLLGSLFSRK", "assay": "TR-FRET binding assay, GST-Bcl-XL with F-Bak peptide probe", "details": "TR-FRET Binding Affinity, GST-Bcl-XL, F-Bak peptide probe", "procedure,_shortened": "as §1"}, "FL5.12/Bcl-2 cells": {"tested_on": "FL5.12/Bcl-2 cells", "assay": "FL5.12/Bcl-2 cell viability assay under IL-3 withdrawal (CellTitre Glo)", "format": "cell-based, murine", "details": "Mus musculus, IL-3 withdrawn 48 hrs, then 24 hrs with compound", "procedure,_shortened": "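Viability measured by CellTitre Glo after FL5.12/Bcl-2 murine cells, starved of IL-3 for 48 hrs, were treated with compounds for another 24 hrs. Killing reflects inhibition of Bcl-2 sequestration of Bim and Puma.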"}},
  "data": [
    {"smiles": "CC1(C)CCC(CN2CCN(c3ccc(C(=O)NS(=O)(=O)c4cnc(OCC5CCOCC5)c(Br)c4)c(Oc4ccc5[nH]ccc5c4)c3)CC2)=C(c2ccc(Cl)cc2)C1", "note": "[Example 329, N-{[5-bromo-6-(tetrahydro-2H-pyran-4-ylmethoxy)pyridin-3-yl]sulfonyl}-4-(4-{[2-(4-chlorophenyl)-4,4-dimethylcyclohex-1-en-1-yl]methyl}piperazin-1-yl)-2-(1H-indol-5-yloxy)benzamide]", "values": [
      {"measurement": "Ki", "setting": "GST-Bcl-2", "result": 0.285, "unit": "nM"},
      {"measurement": "Ki", "setting": "GST-Bcl-XL", "result": "> 660", "unit": "nM"},
      {"measurement": "EC50", "setting": "FL5.12/Bcl-2 cells", "result": 127, "unit": "nM"}
    ]},
    {"smiles": "CC(C)Oc1cc(-c2ccc(Cl)cc2)c(CN2CCN(c3ccc(C(=O)NS(=O)(=O)c4ccc(NCC5CCOCC5)c([N+](=O)[O-])c4)c(Oc4ccc5[nH]ccc5c4)c3)CC2)cn1", "note": "[Example 330, 4-(4-{[4-(4-chlorophenyl)-6-isopropoxypyridin-3-yl]methyl}piperazin-1-yl)-2-(1H-indol-5-yloxy)-N-({3-nitro-4-[(tetrahydro-2H-pyran-4-ylmethyl)amino]phenyl}sulfonyl)benzamide]", "values": [
      {"measurement": "Ki", "setting": "GST-Bcl-2", "result": 74.9, "unit": "nM"},
      {"measurement": "Ki", "setting": "GST-Bcl-XL", "result": "> 660", "unit": "nM"},
      {"measurement": "EC50", "setting": "FL5.12/Bcl-2 cells", "result": "> 500", "unit": "nM"}
    ]},
    {"smiles": "CC1(C)CCC(CN2CCN(c3ccc(C(=O)NS(=O)(=O)c4cnc(OCC5CCOCC5)c(-c5nccs5)c4)c(Oc4ccc5[nH]ccc5c4)c3)CC2)=C(c2ccc(Cl)cc2)C1", "note": "[Example 331, 4-(4-{[2-(4-chlorophenyl)-4,4-dimethylcyclohex-1-en-1-yl]methyl}piperazin-1-yl)-2-(1H-indol-5-yloxy)-N-{[6-(tetrahydro-2H-pyran-4-ylmethoxy)-5-(1,3-thiazol-2-yl)pyridin-3-yl]sulfonyl}benzamide]", "values": [
      {"measurement": "Ki", "setting": "GST-Bcl-2", "result": 8.27, "unit": "nM"},
      {"measurement": "Ki", "setting": "GST-Bcl-XL", "result": "> 660", "unit": "nM"},
      {"measurement": "EC50", "setting": "FL5.12/Bcl-2 cells", "result": "> 500", "unit": "nM"}
    ]},
    {"smiles": "COCCNC(=O)c1ccc(S(=O)(=O)NC(=O)c2ccc(N3CCN(CC4=C(c5ccc(Cl)cc5)CC(C)(C)CC4)CC3)cc2Oc2ccc3[nH]ccc3c2)cc1", "note": "[Example 332, 4-(4-{[2-(4-chlorophenyl)-4,4-dimethylcyclohex-1-en-1-yl]methyl}piperazin-1-yl)-2-(1H-indol-5-yloxy)-N-[(4-{[(2-methoxyethyl)amino]carbonyl}phenyl)sulfonyl]benzamide]", "values": [
      {"measurement": "Ki", "setting": "GST-Bcl-2", "result": 12.6, "unit": "nM"},
      {"measurement": "Ki", "setting": "GST-Bcl-XL", "result": "> 660", "unit": "nM"},
      {"measurement": "EC50", "setting": "FL5.12/Bcl-2 cells", "result": "> 500", "unit": "nM"}
    ]},
    {"smiles": "CC1(C)CCC(CN2CCN(c3ccc(C(=O)NS(=O)(=O)c4cnc(OCC5CCOCC5)c(C#N)c4)c(Oc4ccc5[nH]ccc5c4)c3)CC2)=C(c2ccc(Cl)cc2)C1", "note": "[Example 333, 4-(4-{[2-(4-chlorophenyl)-4,4-dimethylcyclohex-1-en-1-yl]methyl}piperazin-1-yl)-N-{[5-cyano-6-(tetrahydro-2H-pyran-4-ylmethoxy)pyridin-3-yl]sulfonyl}-2-(1H-indol-5-yloxy)benzamide]", "values": [
      {"measurement": "Ki", "setting": "GST-Bcl-2", "result": 0.089, "unit": "nM"},
      {"measurement": "Ki", "setting": "GST-Bcl-XL", "result": "> 660", "unit": "nM"},
      {"measurement": "EC50", "setting": "FL5.12/Bcl-2 cells", "result": 109, "unit": "nM"}
    ]},
    {"smiles": "CC(=O)N1CCC(Nc2ccc(S(=O)(=O)NC(=O)c3ccc(N4CCN(CC5=C(c6ccc(Cl)cc6)CC(C)(C)CC5)CC4)cc3Oc3ccc4[nH]ccc4c3)cc2[N+](=O)[O-])CC1", "note": "[Example 334, N-({4-[(1-acetylpiperidin-4-yl)amino]-3-nitrophenyl}sulfonyl)-4-(4-{[2-(4-chlorophenyl)-4,4-dimethylcyclohex-1-en-1-yl]methyl}piperazin-1-yl)-2-(1H-indol-5-yloxy)benzamide]", "values": [
      {"measurement": "Ki", "setting": "GST-Bcl-2", "result": 0.179, "unit": "nM"},
      {"measurement": "Ki", "setting": "GST-Bcl-XL", "result": "> 660", "unit": "nM"},
      {"measurement": "EC50", "setting": "FL5.12/Bcl-2 cells", "result": 65.9, "unit": "nM"}
    ]},
    {"smiles": "CC1(C)CCC(CN2CCN(c3ccc(C(=O)NS(=O)(=O)c4ccc(NC5CCN(S(C)(=O)=O)CC5)c([N+](=O)[O-])c4)c(Oc4ccc5[nH]ccc5c4)c3)CC2)=C(c2ccc(Cl)cc2)C1", "note": "[Example 335, 4-(4-{[2-(4-chlorophenyl)-4,4-dimethylcyclohex-1-en-1-yl]methyl}piperazin-1-yl)-2-(1H-indol-5-yloxy)-N-[(4-{[1-(methylsulfonyl)piperidin-4-yl]amino}-3-nitrophenyl)sulfonyl]benzamide]", "values": [
      {"measurement": "Ki", "setting": "GST-Bcl-2", "result": 0.438, "unit": "nM"},
      {"measurement": "Ki", "setting": "GST-Bcl-XL", "result": "> 660", "unit": "nM"},
      {"measurement": "EC50", "setting": "FL5.12/Bcl-2 cells", "result": 39, "unit": "nM"}
    ]},
    {"smiles": "CC1(C)CCC(CN2CCN(c3ccc(C(=O)NS(=O)(=O)c4ccc(NCC5COCCO5)c([N+](=O)[O-])c4)c(Oc4ccc5[nH]ccc5c4)c3)CC2)=C(c2ccc(Cl)cc2)C1", "note": "(stereo not drawn) [Example 336, 4-(4-{[2-(4-chlorophenyl)-4,4-dimethylcyclohex-1-en-1-yl]methyl}piperazin-1-yl)-N-({4-[(1,4-dioxan-2-ylmethyl)amino]-3-nitrophenyl}sulfonyl)-2-(1H-indol-5-yloxy)benzamide]", "values": [
      {"measurement": "Ki", "setting": "GST-Bcl-2", "result": 0.105, "unit": "nM"},
      {"measurement": "Ki", "setting": "GST-Bcl-XL", "result": 242, "unit": "nM"},
      {"measurement": "EC50", "setting": "FL5.12/Bcl-2 cells", "result": 7.49, "unit": "nM"}
    ]},
    {"smiles": "CC(=O)N1CCC(Nc2ccc(S(=O)(=O)NC(=O)c3ccc(N4CCN(CC5=C(c6ccc(Cl)cc6)CC(C)(C)CC5)CC4)cc3Oc3cccc4[nH]ccc34)cc2[N+](=O)[O-])CC1", "note": "[Example 337, N-({4-[(1-acetylpiperidin-4-yl)amino]-3-nitrophenyl}sulfonyl)-4-(4-{[2-(4-chlorophenyl)-4,4-dimethylcyclohex-1-en-1-yl]methyl}piperazin-1-yl)-2-(1H-indol-4-yloxy)benzamide]", "values": [
      {"measurement": "Ki", "setting": "GST-Bcl-2", "result": 0.535, "unit": "nM"},
      {"measurement": "Ki", "setting": "GST-Bcl-XL", "result": "> 660", "unit": "nM"},
      {"measurement": "EC50", "setting": "FL5.12/Bcl-2 cells", "result": 124, "unit": "nM"}
    ]},
    {"smiles": "CC1(C)CCC(CN2CCN(c3ccc(C(=O)NS(=O)(=O)c4ccc(NC5CCN(S(C)(=O)=O)CC5)c([N+](=O)[O-])c4)c(Oc4cccc5[nH]ccc45)c3)CC2)=C(c2ccc(Cl)cc2)C1", "note": "[Example 338, 4-(4-{[2-(4-chlorophenyl)-4,4-dimethylcyclohex-1-en-1-yl]methyl}piperazin-1-yl)-2-(1H-indol-4-yloxy)-N-[(4-{[1-(methylsulfonyl)piperidin-4-yl]amino}-3-nitrophenyl)sulfonyl]benzamide]", "values": [
      {"measurement": "Ki", "setting": "GST-Bcl-2", "result": 0.403, "unit": "nM"},
      {"measurement": "Ki", "setting": "GST-Bcl-XL", "result": "> 660", "unit": "nM"},
      {"measurement": "EC50", "setting": "FL5.12/Bcl-2 cells", "result": 71.1, "unit": "nM"}
    ]},
    {"smiles": "O=C(NS(=O)(=O)c1ccc(NCC2CCOCC2)c([N+](=O)[O-])c1)c1ccc(N2CCN(Cc3ccc(C(F)(F)F)cc3-c3ccc(Cl)cc3)CC2)cc1Oc1ccc2[nH]ccc2c1", "note": "[Example 339, 4-(4-{[4′-chloro-5-(trifluoromethyl)-1,1′-biphenyl-2-yl]methyl}piperazin-1-yl)-2-(1H-indol-5-yloxy)-N-({3-nitro-4-[(tetrahydro-2H-pyran-4-ylmethyl)amino]phenyl}sulfonyl)benzamide]", "values": [
      {"measurement": "Ki", "setting": "GST-Bcl-2", "result": 14.1, "unit": "nM"},
      {"measurement": "Ki", "setting": "GST-Bcl-XL", "result": "> 660", "unit": "nM"},
      {"measurement": "EC50", "setting": "FL5.12/Bcl-2 cells", "result": "> 500", "unit": "nM"}
    ]},
    {"smiles": "O=C(NS(=O)(=O)c1ccc(OCC2CCOCC2)c([N+](=O)[O-])c1)c1ccc(N2CCN(Cc3ccc(C(F)(F)F)cc3-c3ccc(Cl)cc3)CC2)cc1Oc1ccc2[nH]ccc2c1", "note": "[Example 340, 4-(4-{[4′-chloro-5-(trifluoromethyl)-1,1′-biphenyl-2-yl]methyl}piperazin-1-yl)-2-(1H-indol-5-yloxy)-N-{[3-nitro-4-(tetrahydro-2H-pyran-4-ylmethoxy)phenyl]sulfonyl}benzamide]", "values": [
      {"measurement": "Ki", "setting": "GST-Bcl-2", "result": 7.59, "unit": "nM"},
      {"measurement": "Ki", "setting": "GST-Bcl-XL", "result": "> 660", "unit": "nM"},
      {"measurement": "EC50", "setting": "FL5.12/Bcl-2 cells", "result": "> 500", "unit": "nM"}
    ]},
    {"smiles": "CC(C)(C)c1ccc(CN2CCN(c3ccc(C(=O)NS(=O)(=O)c4ccc(NCC5CCOCC5)c([N+](=O)[O-])c4)c(Oc4ccc5[nH]ccc5c4)c3)CC2)c(-c2ccc(Cl)cc2)c1", "note": "[Example 341, 4-{4-[(5-tert-butyl-4′-chloro-1,1′-biphenyl-2-yl)methyl]piperazin-1-yl}-2-(1H-indol-5-yloxy)-N-({3-nitro-4-[(tetrahydro-2H-pyran-4-ylmethyl)amino]phenyl}sulfonyl)benzamide]", "values": [
      {"measurement": "Ki", "setting": "GST-Bcl-2", "result": 13, "unit": "nM"},
      {"measurement": "Ki", "setting": "GST-Bcl-XL", "result": "> 660", "unit": "nM"},
      {"measurement": "EC50", "setting": "FL5.12/Bcl-2 cells", "result": "> 500", "unit": "nM"}
    ]}
  ]
}
